Measurements reported in patent US11850280B1 (priority 2020, dated 2023).

Details: in vivo

## Ivermectin
  blood plasma levels versus dosage: dose-response relationship
